# In ChEMBL document CHEMBL1201862, “PubChem BioAssay data set” (2004):
# Calls of active or inactive are those of the source.
# Legend:
# [1] = microbe, parasite or virus in culture; format: functional; settings: Mycobacterium tuberculosis
# [2] = target: T1, Ubiquitin-conjugating enzyme E2 N (Homo sapiens, UniProt P61088); format: functional;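 further: Dose-response confirmation in a TR-FRET assay detecting UBC13-driven polyubiquitin chain formation, inhibition measured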
# T1 sequence (P61088 whole entry): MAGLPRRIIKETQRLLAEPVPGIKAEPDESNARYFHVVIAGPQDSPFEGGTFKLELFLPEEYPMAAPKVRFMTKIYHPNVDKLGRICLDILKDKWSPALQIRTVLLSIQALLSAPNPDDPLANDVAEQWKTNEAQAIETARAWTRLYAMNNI
# [3] = test system: Vero; experiment: cells; format: functional; settings: Chlorocebus sabaeus
# [4] = target: Cytochrome P450 3A4 (Homo sapiens, UniProt P08684); settings: Potency;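 further: confirmatory qHTS run detecting inhibitors and substrates of CYP3A4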
# [5] = target: T2, Adenosylmethionine-8-amino-7-oxononanoate aminotransferase (Mycobacterium tuberculosis, UniProt P9WQ81); experiment: Mycobacterium tuberculosis BioA enzyme inhibitor Measured in Biochemical System Using Plate Reader - 2163-02_Inhibitor_Dose_CherryPick_Activity.; format: functional, Mycobacterium tuberculosis UT205
# T2 sequence (P9WQ81 whole entry): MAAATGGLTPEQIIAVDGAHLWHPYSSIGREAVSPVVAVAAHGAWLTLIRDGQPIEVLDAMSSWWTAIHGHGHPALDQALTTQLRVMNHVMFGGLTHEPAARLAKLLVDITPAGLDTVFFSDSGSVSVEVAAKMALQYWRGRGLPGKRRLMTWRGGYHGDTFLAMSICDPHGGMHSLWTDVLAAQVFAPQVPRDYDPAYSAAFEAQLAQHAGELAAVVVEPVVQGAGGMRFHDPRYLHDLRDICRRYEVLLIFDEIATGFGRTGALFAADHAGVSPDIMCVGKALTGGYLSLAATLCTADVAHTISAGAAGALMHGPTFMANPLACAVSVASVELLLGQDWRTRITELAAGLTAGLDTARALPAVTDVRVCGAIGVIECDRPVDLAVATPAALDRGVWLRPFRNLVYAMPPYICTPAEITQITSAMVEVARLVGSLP
# [6] = target: T3, Estrogen receptor (Homo sapiens, UniProt P03372);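 further: potency for inhibiting coactivator peptide recruitment to the receptor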
# T3 sequence (P03372 whole entry): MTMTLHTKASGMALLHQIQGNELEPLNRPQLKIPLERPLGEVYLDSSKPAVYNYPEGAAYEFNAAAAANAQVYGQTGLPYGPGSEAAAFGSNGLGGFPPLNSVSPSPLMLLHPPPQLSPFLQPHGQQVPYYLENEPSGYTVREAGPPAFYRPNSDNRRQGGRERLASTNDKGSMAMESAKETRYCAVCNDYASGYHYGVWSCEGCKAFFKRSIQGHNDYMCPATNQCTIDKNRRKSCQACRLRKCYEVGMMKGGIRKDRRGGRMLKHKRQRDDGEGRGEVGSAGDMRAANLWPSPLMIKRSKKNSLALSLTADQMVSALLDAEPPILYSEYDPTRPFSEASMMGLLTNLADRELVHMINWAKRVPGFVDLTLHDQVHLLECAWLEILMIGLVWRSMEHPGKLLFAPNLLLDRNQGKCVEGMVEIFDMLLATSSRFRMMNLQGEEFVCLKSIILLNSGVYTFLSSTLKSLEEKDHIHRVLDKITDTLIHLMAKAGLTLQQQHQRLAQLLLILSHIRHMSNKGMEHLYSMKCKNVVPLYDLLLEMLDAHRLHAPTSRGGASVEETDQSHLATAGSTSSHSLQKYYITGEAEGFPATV
# [7] = test system: HEK293; experiment: NOD1 signaling inhibitors, primary screen, cell-based, luminescence, uHTS (AID 1578); format: functional; settings: Homo sapiens
# [8] = test system: HEK293; experiment: cells; format: functional, cell-based; settings: Homo sapiens
# [9] = test system: HEK293; experiment: cells; format: functional, cell-based; settings: Homo sapiens; remark: listed apart in the source
# [10] = target: Nucleotide-binding oligomerization domain-containing protein 2 (Homo sapiens, UniProt Q9HC29); experiment: NOD2 signaling inhibitors, cell-based, luminescence, uHTS, HEK293 (AID 1566); format: functional
# [11] = test system: HEK293; experiment: NOD2 signaling inhibitors in MDP-stimulated cells, cell-based, uHTS, luminescence (AID 2001); format: functional; settings: Homo sapiens
# [12] = test system: HEK293; experiment: cells; format: functional, cell-based; settings: Homo sapiens; remark: listed apart in the source
# [13] = target: T4, DNA repair and recombination protein RAD54-like (Homo sapiens, UniProt Q92698); experiment: inhibitors of human RAD54 branch migration, confirmation, biochemical, fluorescence, cherry-picked samples, dose series (AID 651657); format: functional
# T4 sequence (Q92698 whole entry): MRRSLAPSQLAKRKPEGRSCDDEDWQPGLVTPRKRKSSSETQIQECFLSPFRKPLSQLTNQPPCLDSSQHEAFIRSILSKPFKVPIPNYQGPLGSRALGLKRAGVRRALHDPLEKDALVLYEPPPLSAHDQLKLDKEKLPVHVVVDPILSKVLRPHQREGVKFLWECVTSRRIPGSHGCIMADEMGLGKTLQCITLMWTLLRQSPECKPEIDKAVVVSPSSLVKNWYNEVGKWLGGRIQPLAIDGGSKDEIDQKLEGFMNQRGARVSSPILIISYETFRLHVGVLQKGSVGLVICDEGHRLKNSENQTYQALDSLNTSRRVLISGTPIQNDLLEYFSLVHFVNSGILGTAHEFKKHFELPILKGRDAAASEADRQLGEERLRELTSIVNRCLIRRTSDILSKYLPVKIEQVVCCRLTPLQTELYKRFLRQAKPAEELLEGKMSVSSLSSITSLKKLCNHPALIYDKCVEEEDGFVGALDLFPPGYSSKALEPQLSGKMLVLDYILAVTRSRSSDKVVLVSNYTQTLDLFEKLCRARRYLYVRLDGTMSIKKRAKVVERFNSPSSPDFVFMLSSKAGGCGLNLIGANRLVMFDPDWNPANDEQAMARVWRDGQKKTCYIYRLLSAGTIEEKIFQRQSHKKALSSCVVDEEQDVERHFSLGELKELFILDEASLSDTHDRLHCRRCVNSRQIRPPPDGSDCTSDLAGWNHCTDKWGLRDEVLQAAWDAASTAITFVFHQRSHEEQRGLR
# [14] = inhibitors of intracellular T. cruzi replication, confirmation, NIH3T3 host cells, beta-gal luminescence (AID 2044); format: functional, cell-based;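 further: intracellular parasites grown in NIH/3T3 mouse fibroblasts as host cells; luminescent beta-galactosidase reporter signal from transgenic T. cruzi replicating inside host cells; inhibitors lower the luminescence signal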
# [15] = cytotoxicity toward NIH3T3 fibroblasts, dose response, counter-screen, cell-based, ATP luminescence, mouse fibroblasts (AID 2010); format: functional;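 further: cells exposed to compound for about 90 hours before reading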
# [16] = test system: INS1; experiment: beta cell apoptosis inhibitors, cytokine rescue, dose response, luminescence, retest (AID 449756); format: functional, cell-based; settings: Rattus norvegicus, INS1;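 further: cell death triggered by IL-1 beta plus TNF-alpha plus IFN-gamma mixture; protective hits raise ATP signal compared with cytokine alone wells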
# [17] = cells
# [18] = target: T5, Fatty acid synthase (Homo sapiens, UniProt P49327); experiment: FAS thioesterase domain inhibitors, dose response, biochemical, endpoint fluorescence intensity, uHTS hits (AID 624327); format: functional;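 further: fluorescence from hydrolysis of an O-methyl fluorescein acyl ester substrate by the enzyme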
# [19] = target: T5, Fatty acid synthase; experiment: FAS thioesterase domain inhibitors, dose response, biochemical, kinetic fluorescence intensity (AID 624326); format: functional;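 further: rate of fluorescence rise from hydrolysis of a fluorogenic O-methyl fluorescein ester substrate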
# [20] = intracellular Trypanosoma cruzi inhibitors in host cells – cell-based, plate reader, cherry-pick samples, set 3, dose response (AID 651818); format: functional;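 further: compounds incubated with infected cells for about four days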
# [21] = P. falciparum Dd2 growth inhibitors, dose response, SYBR Green, cherry-picked samples (AID 1159567); format: functional, cell-based
# [22] = target: Cytochrome P450 2C9 (Homo sapiens, UniProt P11712)
# Chain of Cytochrome P450 2C9 (P11712 whole entry): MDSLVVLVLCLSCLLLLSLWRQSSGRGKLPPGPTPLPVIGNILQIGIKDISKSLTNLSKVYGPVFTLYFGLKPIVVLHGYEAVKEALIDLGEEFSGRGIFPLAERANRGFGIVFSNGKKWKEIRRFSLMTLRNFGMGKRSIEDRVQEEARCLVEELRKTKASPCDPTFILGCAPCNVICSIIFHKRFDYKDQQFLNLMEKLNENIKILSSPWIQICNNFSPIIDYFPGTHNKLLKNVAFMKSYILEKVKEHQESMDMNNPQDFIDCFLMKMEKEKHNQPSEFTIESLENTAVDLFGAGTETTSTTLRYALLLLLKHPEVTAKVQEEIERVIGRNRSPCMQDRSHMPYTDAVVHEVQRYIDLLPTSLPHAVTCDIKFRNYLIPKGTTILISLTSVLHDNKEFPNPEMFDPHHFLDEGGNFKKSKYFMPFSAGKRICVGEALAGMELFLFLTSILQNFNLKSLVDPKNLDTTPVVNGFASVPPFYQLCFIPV
# T5 sequence (P49327 whole entry, the tested form may be a part): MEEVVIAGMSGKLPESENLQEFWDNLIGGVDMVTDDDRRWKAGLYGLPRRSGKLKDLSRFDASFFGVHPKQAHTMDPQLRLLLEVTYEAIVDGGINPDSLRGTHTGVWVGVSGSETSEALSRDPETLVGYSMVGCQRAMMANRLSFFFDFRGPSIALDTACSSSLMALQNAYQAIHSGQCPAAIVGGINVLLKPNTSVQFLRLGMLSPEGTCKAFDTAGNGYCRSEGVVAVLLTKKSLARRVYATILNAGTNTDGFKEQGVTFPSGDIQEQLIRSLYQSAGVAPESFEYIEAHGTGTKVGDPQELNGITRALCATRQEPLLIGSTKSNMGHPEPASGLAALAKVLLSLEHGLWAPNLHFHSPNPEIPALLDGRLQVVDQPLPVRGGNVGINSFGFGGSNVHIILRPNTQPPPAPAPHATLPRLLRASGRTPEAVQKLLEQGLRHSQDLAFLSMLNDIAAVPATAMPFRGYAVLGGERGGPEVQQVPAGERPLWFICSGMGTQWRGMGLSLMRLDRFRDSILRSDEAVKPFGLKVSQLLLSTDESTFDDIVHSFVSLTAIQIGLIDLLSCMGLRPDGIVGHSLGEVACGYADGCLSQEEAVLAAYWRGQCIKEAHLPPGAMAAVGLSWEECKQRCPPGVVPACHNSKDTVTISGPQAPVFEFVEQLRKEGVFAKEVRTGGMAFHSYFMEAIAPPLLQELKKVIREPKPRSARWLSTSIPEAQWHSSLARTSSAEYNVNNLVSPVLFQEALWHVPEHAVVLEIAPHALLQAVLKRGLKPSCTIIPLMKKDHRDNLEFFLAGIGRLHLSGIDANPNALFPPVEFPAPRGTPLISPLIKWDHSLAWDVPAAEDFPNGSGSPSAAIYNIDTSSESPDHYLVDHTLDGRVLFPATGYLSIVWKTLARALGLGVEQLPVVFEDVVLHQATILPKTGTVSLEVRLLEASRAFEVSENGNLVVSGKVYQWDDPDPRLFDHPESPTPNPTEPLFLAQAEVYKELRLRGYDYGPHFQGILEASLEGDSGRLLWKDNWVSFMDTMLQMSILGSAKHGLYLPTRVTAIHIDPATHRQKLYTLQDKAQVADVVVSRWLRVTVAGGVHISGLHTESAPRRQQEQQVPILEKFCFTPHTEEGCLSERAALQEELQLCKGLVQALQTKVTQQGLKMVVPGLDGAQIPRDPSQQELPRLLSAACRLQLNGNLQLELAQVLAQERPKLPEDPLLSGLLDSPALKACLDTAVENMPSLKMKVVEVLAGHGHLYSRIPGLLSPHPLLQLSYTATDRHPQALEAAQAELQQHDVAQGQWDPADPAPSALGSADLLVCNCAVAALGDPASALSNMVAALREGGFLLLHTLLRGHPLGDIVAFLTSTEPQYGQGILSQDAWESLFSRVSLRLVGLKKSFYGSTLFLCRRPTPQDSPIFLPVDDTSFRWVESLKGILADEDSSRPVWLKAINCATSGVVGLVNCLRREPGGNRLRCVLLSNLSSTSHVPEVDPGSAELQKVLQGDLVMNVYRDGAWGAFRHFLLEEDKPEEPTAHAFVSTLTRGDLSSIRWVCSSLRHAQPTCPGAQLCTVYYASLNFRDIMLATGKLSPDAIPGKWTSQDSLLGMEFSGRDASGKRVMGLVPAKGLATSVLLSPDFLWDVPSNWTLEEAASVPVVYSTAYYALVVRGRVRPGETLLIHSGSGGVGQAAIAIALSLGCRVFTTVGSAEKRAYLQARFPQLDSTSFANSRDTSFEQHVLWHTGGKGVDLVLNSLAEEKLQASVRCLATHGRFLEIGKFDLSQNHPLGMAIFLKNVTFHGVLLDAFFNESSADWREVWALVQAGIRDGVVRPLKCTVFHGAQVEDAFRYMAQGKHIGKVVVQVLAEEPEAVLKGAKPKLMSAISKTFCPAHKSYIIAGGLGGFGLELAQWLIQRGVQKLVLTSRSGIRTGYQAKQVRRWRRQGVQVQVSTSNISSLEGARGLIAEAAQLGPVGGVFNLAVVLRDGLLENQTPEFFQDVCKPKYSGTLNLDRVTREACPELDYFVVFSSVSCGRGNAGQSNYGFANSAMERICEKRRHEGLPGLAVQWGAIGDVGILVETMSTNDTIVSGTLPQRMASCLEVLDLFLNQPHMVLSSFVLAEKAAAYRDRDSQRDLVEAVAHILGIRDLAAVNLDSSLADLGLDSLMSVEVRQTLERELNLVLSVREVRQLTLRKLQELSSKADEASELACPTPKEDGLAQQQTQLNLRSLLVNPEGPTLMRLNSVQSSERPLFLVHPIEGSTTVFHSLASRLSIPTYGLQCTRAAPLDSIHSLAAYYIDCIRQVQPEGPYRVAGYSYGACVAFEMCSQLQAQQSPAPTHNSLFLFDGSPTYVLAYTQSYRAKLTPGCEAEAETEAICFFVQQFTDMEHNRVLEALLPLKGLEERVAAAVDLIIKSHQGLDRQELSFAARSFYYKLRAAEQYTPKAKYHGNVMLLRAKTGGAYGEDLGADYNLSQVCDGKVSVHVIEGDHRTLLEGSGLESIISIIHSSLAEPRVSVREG
# Chain of Cytochrome P450 3A4 (P08684 whole entry): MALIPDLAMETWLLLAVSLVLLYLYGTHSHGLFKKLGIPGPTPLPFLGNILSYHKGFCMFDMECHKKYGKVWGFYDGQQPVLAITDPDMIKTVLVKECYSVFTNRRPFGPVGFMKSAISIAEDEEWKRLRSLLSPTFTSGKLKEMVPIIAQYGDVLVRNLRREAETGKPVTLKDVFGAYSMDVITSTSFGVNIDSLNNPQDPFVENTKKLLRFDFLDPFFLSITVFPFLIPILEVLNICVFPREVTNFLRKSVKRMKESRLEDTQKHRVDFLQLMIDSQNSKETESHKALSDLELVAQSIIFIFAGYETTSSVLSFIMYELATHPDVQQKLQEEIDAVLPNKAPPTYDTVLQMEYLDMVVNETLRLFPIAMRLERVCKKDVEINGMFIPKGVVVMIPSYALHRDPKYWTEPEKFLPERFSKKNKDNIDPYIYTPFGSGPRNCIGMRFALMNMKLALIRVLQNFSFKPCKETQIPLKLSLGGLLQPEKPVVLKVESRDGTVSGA
# Chain of Nucleotide-binding oligomerization domain-containing protein 2 (Q9HC29 whole entry, the tested form may be a part): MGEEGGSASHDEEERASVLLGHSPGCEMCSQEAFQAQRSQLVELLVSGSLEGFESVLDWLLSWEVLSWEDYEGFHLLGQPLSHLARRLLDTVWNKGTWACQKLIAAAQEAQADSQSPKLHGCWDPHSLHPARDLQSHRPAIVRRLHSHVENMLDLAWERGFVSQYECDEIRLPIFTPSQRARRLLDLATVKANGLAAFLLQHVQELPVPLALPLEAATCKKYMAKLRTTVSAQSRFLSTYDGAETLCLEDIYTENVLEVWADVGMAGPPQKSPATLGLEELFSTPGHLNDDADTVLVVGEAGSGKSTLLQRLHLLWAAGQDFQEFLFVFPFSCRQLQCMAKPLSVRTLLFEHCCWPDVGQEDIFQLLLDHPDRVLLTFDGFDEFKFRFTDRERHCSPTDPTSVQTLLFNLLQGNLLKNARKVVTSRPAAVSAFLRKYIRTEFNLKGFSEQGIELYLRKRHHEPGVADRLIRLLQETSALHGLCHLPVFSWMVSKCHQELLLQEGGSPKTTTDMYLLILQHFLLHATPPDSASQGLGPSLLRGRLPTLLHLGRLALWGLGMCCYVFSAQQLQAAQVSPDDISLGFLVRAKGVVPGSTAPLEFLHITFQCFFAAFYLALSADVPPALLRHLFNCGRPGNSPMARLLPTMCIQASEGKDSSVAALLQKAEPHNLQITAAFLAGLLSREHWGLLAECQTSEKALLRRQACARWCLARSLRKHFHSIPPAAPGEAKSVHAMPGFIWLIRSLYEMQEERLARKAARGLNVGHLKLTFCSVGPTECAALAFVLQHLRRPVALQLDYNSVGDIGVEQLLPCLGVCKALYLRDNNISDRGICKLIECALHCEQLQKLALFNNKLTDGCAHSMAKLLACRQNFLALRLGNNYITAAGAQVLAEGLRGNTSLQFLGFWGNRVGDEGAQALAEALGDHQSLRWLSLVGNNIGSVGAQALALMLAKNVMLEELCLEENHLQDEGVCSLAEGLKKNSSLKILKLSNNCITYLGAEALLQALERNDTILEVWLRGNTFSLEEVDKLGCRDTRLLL
smiles,measurement,setting,value
CC/C(=C(\c1ccc(O)cc1)c1ccc(OCCN(C)C)cc1)c1ccccc1 [AFIMOXIFENE],CC50,[1],16.6 µM (active)
same,IC50,[2],> 20 µM (inactive)
same,CC50,[3],19.4 µM (active)
same,AC50,[4],25.1 µM (inconclusive)
COc1ccc([N+](=O)[O-])cc1C(=O)NC1CCN(Cc2ccccc2)CC1,AC50,[5],2.3 µM (active)
COCCNC(=O)C[C@H]1CC[C@@H]2[C@H](COc3ccc(NC(=O)Nc4cccc(F)c4)cc3C(=O)N2C)O1,AC50,[5],6.86 µM (active)
COc1ccc(C(=O)CSc2nnc(C3CCCCC3)n2N)c(OC)c1,IC50,[6],> 50 µM (not active)
COc1ccccc1NC(=O)CSc1nc2sc(C)c(C)c2c(=O)n1C,EC50,[7],> 20 µM (inactive)
same,IC50,[8],12.7 µM (active)
same,IC50,[9],> 20 µM (inactive)
same,EC50,[10],> 20 µM (inactive)
same,IC50,[11],8.8 µM (active)
same,IC50,[12],> 20 µM (inactive)
CCN(CC)CC(=O)Nc1cccc2c1C(=O)c1ccccc1C2=O,AC50,[13],100 µM (inactive)
CC(=O)C1=C(O)C=C2Oc3c(C(C)=O)c(O)c(C)c(O)c3[C@]2(C)C1=O [(-)-USNIC ACID],AC50,[4],31.6 µM (inconclusive)
CCCCCCOc1ccc(CN2CCN(C)CC2)cc1,EC50,[14],< 0.1 µM (active)
same,EC50,[15],4.32 µM (active)
same,AC50,[16],4.04 µM (active)
same,EC50,[17],0.076 µM (active)
C[C@@H]1CN([C@@H](C)CO)C(=O)Cc2cc(NC(=O)Cn3cnnn3)ccc2O[C@H]1CN(C)Cc1ccc2c(c1)OCO2,AC50,[5],10.5 µM (active)
Cc1ccccc1Cn1c(C)nc2ccc([N+](=O)[O-])cc2c1=O,IC50,[18],9.84 µM (active)
same,IC50,[19],7.08 µM (active)
Cc1c(-c2cc(Br)ccc2O)nc2cc3c(cc2c1C)OCO3,AC50,[13],57.5 µM (active)
COc1ccccc1CN1CC(C(=O)NCCN(C)CCc2ccccc2)CCC1=O (centres undefined),EC50,[14],< 0.1 µM (active)
same,EC50,[15],> 60 µM (not active)
same,EC50,[17],0.061 µM (active)
C/C=C/c1ccc2c(c1)O[C@@H](CN(C)C(=O)Nc1ccc(F)cc1)[C@@H](C)CN([C@@H](C)CO)S2(=O)=O,AC50,[5],4.65 µM (active)
COc1cc2c(C)nc3onc(-c4ccccc4)c3c2cc1OC,IC50,[18],7.51 µM (active)
same,IC50,[19],19.4 µM (active)
C[C@H]1CN([C@@H](C)CO)C(=O)Cc2cc(NC(=O)Nc3ccc(C(F)(F)F)cc3)ccc2O[C@@H]1CN(C)Cc1ccc(C(F)(F)F)cc1,AC50,[20],5.04 µM (active)
C[C@H](CO)N1C[C@H](C)[C@@H](CN(C)Cc2ccc(-c3ccccc3)cc2)Oc2c(NC(=O)c3ccc(-c4nccs4)cc3)cccc2C1=O,AC50,[20],3.54 µM (active)
same,AC50,[21],5.28 µM (active)
Fc1ccc(F)c(CNc2ncnc3cc(Cl)ccc23)c1,EC50,[7],9.76 µM (active)
same,IC50,[8],6.42 µM (active)
same,IC50,[9],11.9 µM (active)
same,EC50,[10],> 20 µM (inactive)
same,IC50,[11],12.7 µM (inactive)
same,IC50,[12],> 20 µM (inactive)
COc1ccc2[nH]c3nc(SCc4nnc(-c5ccc(C)cc5)o4)nnc3c2c1,IC50,[6],6.84 µM (active)
CSc1cccc(NC(=O)CN(c2ccccc2)S(=O)(=O)N(C)C)c1,IC50,[6],> 50 µM (not active)
Cc1nc2ccc([N+](=O)[O-])cc2c(=O)n1Cc1ccc(Br)cc1,IC50,[18],0.623 µM (active)
same,IC50,[19],0.719 µM (active)
C[C@H](CO)N1C[C@H](C)[C@H](CN(C)Cc2ccccc2)Oc2ccc(NC(=O)Nc3ccc(C(F)(F)F)cc3)cc2C1=O,AC50,[20],6.57 µM (active)
O=C(NCc1cn(-c2ccccc2)nc1-c1ccccc1)c1cc([N+](=O)[O-])cc([N+](=O)[O-])c1,EC50,[14],< 0.1 µM (active)
same,EC50,[15],> 60 µM (not active)
same,AC50,[22],2.82 µM (inconclusive)
same,EC50,[17],0.139 µM (active)
COC(=O)N1[C@H](C)C=C[C@]1(Cc1ccccc1)C(=O)NCc1ccc(C)o1,AC50,[4],7.94 µM (inconclusive)
O=S(=O)(Nc1nc2ccccc2nc1Nc1ccc2c(c1)OCO2)c1ccc(F)cc1,EC50,[7],2.81 µM (active)
same,IC50,[8],8.92 µM (active)
same,IC50,[9],> 20 µM (inactive)
same,EC50,[10],11.6 µM (active)
same,IC50,[11],6.29 µM (active)
same,IC50,[12],> 20 µM (inactive)
CC(C)CNC(=O)c1c(N)n(/N=C/c2ccccn2)c2nc3ccccc3nc12,IC50,[6],15.9 µM (active)
Cc1ccc([N+](=O)[O-])cc1S(=O)(=O)NCC1COc2ccccc2O1 (centres undefined),IC50,[18],5.17 µM (active)
same,IC50,[19],4.43 µM (active)
Cc1cc(OCC(=O)Nc2ccncc2)cc(C)c1Br,EC50,[7],3.21 µM (active)
same,IC50,[8],5.24 µM (active)
same,IC50,[9],13.3 µM (active)
same,EC50,[10],8.76 µM (active)
same,IC50,[11],6.86 µM (active)
same,IC50,[12],> 20 µM (inactive)
C[C@@H]1CCCCO[C@@H](CN(C)CC2CCCCC2)[C@@H](C)CN([C@H](C)CO)C(=O)c2cc(NS(=O)(=O)c3ccc(Cl)cc3)ccc2O1,AC50,[20],2.18 µM (active)
